The test system of series [1] is α1-acid glycoprotein (AGP). Briefly: fluorescence quenching of α1-acid glycoprotein. In kind it is binding. The following applies: AGP 2 μM, ligand 0.25-2.5 μM, PBS pH 7.4, λex 285 nm. The protocol:
Human serum albumin (HSA) (product code: A1653) and α1-acid glycoprotein (AGP) (product code: G9885) were purchased from Merck (Darmstadt, Germany) and used as received. Fluorescence emission spectra were recorded using a Hitachi F-4500 fluorometer (Tokyo, Japan), while absorption spectra were collected by employing a Hitachi U-3900 UV–Vis spectrophotometer (Tokyo, Japan). Before the evaluation of fluorescence data, the inner-filter effects of MI-1851 and MI-2415 were corrected based on the following equation [23, 24]:(1) Icor=Iobs×e^(Aex+Aem)/2 where Icor and Iobs are the corrected and observed emission intensities, respectively; and Aex and Aem are the absorbance of the MI compounds tested at the excitation and emission wavelengths used, respectively.
To examine the potential interaction of inhibitor MI-2415 with HSA, increasing levels of the ligand (final concentrations: 0, 1, 2, 3, 4, 7, and 10 μM) were added to a standard amount of the protein (2 μM) in PBS (pH 7.4), and then the emission spectra were recorded (λex = 295 nm, λem = 340 nm). Furthermore, the quenching effects of inhibitors MI-1851 and MI-2415 (both 0, 0.25, 0.5, 1, 1.5, 2, and 2.5 μM) were also tested on the emission signal of AGP (2 μM) in PBS (λex = 285 nm, λem = 337 nm).

In series [2] the test system is IPEC-J2 cells. Description: CCK-8 cytotoxicity assay in IPEC-J2 cells. Type of series: cell-based, porcine. As to conditions: 50 µM or 100 µM, 24 h. The protocol:
The cell line used for the experiments was the IPEC-J2 from the jejunum of porcine. The IPEC-J2 epithelial cell line was a kind gift from Dr. Jody Gookin (Department of Clinical Sciences, College of Veterinary Medicine, North Carolina State University, Raleigh, NC, USA). The cell monolayers were maintained in 75 cm^2 cell culture flasks with filtered caps (Orange Scientific, Braine-l’Alleud, Belgium) at 37 °C in a humidified atmosphere containing 5% CO2. […]
The possible cytotoxic effects of the inhibitors MI-1851 and MI-2415 (structures provided in Figure 1) in different concentrations on IPEC-J2 and those of inhibitor MI-2415 on PHHs were assessed for 24 h by performing the CCK-8 assay (Dojindo Molecular Technologies, Rockville, MD, USA). […] Following three times washing of the wells with PBS, 10 µL CCK-8 reagent mixed with 100 µL fresh Williams’ Medium E was added and the absorbance values were measured at 450 nm using the SpectraMax iD3 microplate reader (Molecular Devices, San José, CA, USA) after 2 h incubation. […]

Series [3] has as its system IPEC-J2 cells. Description: Amplex Red extracellular H2O2 assay in IPEC-J2 cells. Type of series: cell-based, porcine. As to conditions: 50 or 100 μM, 24 h. The method, then:
(§1) The cell line used for the experiments was the IPEC-J2 from the jejunum of porcine. The IPEC-J2 epithelial cell line was a kind gift from Dr. Jody Gookin (Department of Clinical Sciences, College of Veterinary Medicine, North Carolina State University, Raleigh, NC, USA). The cell monolayers were maintained in 75 cm^2 cell culture flasks with filtered caps (Orange Scientific, Braine-l’Alleud, Belgium) at 37 °C in a humidified atmosphere containing 5% CO2. The culture medium contained 50% Dulbecco’s modified Eagle’s medium (DMEM) and 50% Ham’s F12 Nutrient Mixture (Merck, Darmstadt, Germany) supplemented with 1.5 mmol/L HEPES, 5% fetal bovine serum (FBS) (Biocenter, Budapest, Hungary), 1% insulin/transferrin/sodium selenite medium supplement, 5 ng/mL epidermal growth factor (EGF), and 1% penicillin/streptomycin (all purchased from Invitrogen, Thermo Fisher Scientific, Waltham, MA, USA). Cells were used between passages 40 and 55. The media were changed every second day. Cells were seeded onto 96- and 24-well polystyrene cell culture plates for the cell viability and the Amplex Red/DCFH-DA assay, respectively. […]

Series [4] deals with IPEC-J2 cells. Briefly: DCFH-DA intracellular ROS assay in IPEC-J2 cells. In kind it is cell-based, porcine. The following applies: 50 and 100 μM, 24 h. The protocol: as §1, with “55.” for “55. The media were changed every second day. Cells were seeded onto 96- and 24-well polystyrene cell culture plates for the cell viability and the Amplex Red/DCFH-DA assay, respectively.”
The ability of inhibitors MI-1851 and MI-2415 to induce oxidative stress (ROS) within IPEC-J2 as well as of compound MI-2415 within PHHs was investigated with 2,7-dichloro-dihydro-fluorescein diacetate (DCFH2-DA). […] A Victor X2 2030 (Perkin Elmer, Waltham, MA, USA) was used to determine the fluorescence values of the samples (excitation wavelength: 485 nm, emission wavelength: 535 nm), which are directly proportional to the ROS generation.

Series [5] addresses furin. As to conditions: read-out: Ki for furin; cited from earlier work.
Series [6] relates to mice. The following applies: cited from earlier work; for tolerated i.p. dose: mice.

Read-outs that look alike come from different tables or passages of the source.

As for `CC(C)(C)[C@H](NC(=O)[C@H](CCONC(=N)N)NC(=O)Cc1ccc(CNC(=N)N)cc1)C(=O)N[C@@H](CCONC(=N)N)C(=O)NCc1ccc(C(=N)N)cc1` [MI-1851], in series [1], the “effect on fluorescence signal of AGP at 337 nm” value was “did not induce relevant changes in the fluorescence signal of AGP”. The “cell viability of IPEC-J2 cells” value in series [2] was “did not show a significant decrease in cell viability”. In addition, the “extracellular H2O2 production (redox balance) in IPEC-J2 cells” value in series [3] was “slightly, but statistically not significantly”. Also, the “intracellular ROS levels in IPEC-J2 cells” value in series [4] is reported as “no significant alterations in intracellular ROS levels”. For the same compound, in series [5], the Ki (commonly a measure of affinity in units of concentration, obtained from inhibition or displacement) was 10.1 pM. In series [6] (no higher dose was tested), the tolerated i.p. dose is listed as 15 mg/kg.

Take `CC(C)(C)[C@H](NC(=O)[C@H](CCONC(=N)N)NC(=O)Cc1ccc(CNC(=N)N)cc1)C(=O)N[C@@H](CCONC(=N)N)C(=O)NCc1ccc2c(c1)CN=C2N` [MI-2415]: the “effect on fluorescence signal of AGP at 337 nm” value in series [1] is “did not induce relevant changes in the fluorescence signal of AGP”. In series [2], the “cell viability of IPEC-J2 cells” value is recorded as “did not show a significant decrease in cell viability”. In addition, in series [3], the “extracellular H2O2 production (redox balance) in IPEC-J2 cells” value was “slightly, but statistically not significantly”. In addition, the “intracellular ROS levels in IPEC-J2 cells” value in series [4] is on record as “no significant alterations in intracellular ROS levels”. For the same compound, in series [5], the Ki is 7.1 pM. For the same compound, the tolerated i.p. dose in series [6] is recorded as 15 mg/kg. The mortality entry in series [6] (mouse, in vivo, ip, 20 mg/kg) was “one of four mice died”.

These data come from article PMC11444200, “In Vitro Evaluation of Antipseudomonal Activity and Safety Profile of Peptidomimetic Furin Inhibitors” (Biomedicines, 2024).
